ChEMBL document CHEMBL5214978, “Identification of 1,4-Benzodiazepine-2,5-dione Derivatives as Potential Protein Synthesis Inhibitors with Highly Potent Anticancer Activity” (J Med Chem, 2022)
Activity calls are given as the source filed them. The rule behind the calls is not given here.

What was measured:
A549 = test: Anticancer activity against human A549 cells assessed as cell growth inhibition measured after 48 hrs by SRB assay; assay type: functional
HCT-116 = test: Anticancer activity against human HCT-116 cells assessed as cell growth inhibition measured after 48 hrs by SRB assay; assay type: functional
SF-295 = test: Anticancer activity against human SF-295 cells assessed as cell growth inhibition measured after 48 hrs by SRB assay; assay type: functional
LOX IMVI = test: Anticancer activity against human LOX IMVI cells assessed as cell growth inhibition measured after 48 hrs by SRB assay; assay type: functional
786-0 = test: Anticancer activity against human 786-0 cells assessed as cell growth inhibition measured after 48 hrs by SRB assay; assay type: functional
[1] = system: Panel NCI-60 (60 carcinoma cell lines); test: Anticancer activity against human Panel NCI-60 (60 carcinoma cell lines) line assessed as cell growth inhibition measured after 48 hrs by SRB assay; assay type: functional
[2] = Inhibition of tubulin polymerization […] assessed as microtubule assembly measured every 1 min for 60 mins by fluorimeter analysis
NCI-H460 [3] = test: Induction of cell cycle arrest in human NCI-H460 cells assessed as accumulation at S phase at 20 nM incubated for 48 hrs by PI staining based flow cytometric analysis; assay type: functional
NCI-H522 [4] = test: Induction of apoptosis in human NCI-H522 cells assessed as viable cells at 0.05 uM incubated for 48 hrs by Annexin V-FITC/PI staining based flow cytometric analysis (reference value: 82.4%); assay type: functional; conditions: read-out: Activity
NCI-H522 [5] = test: Induction of apoptosis in human NCI-H522 cells assessed as early apoptotic cells at 0.05 uM incubated for 48 hrs by Annexin V-FITC/PI staining based flow cytometric analysis (Rvb =7.01 %); assay type: functional
NCI-H522 [6] = test: Induction of apoptosis in human NCI-H522 cells assessed as late apoptotic cells at 0.05 uM incubated for 48 hrs by Annexin V-FITC/PI staining based flow cytometric analysis (Rvb =9.14 %); assay type: functional
NCI-H522 [7] = test: Induction of apoptosis in human NCI-H522 cells assessed as necrotic cells at 0.05 uM incubated for 48 hrs by Annexin V-FITC/PI staining based flow cytometric analysis (Rvb =0.64 %); assay type: functional
NCI-H522 [8] = test: Induction of apoptosis in human NCI-H522 cells assessed as viable cells at 0.5 uM incubated for 48 hrs by Annexin V-FITC/PI staining based flow cytometric analysis (reference value: 82.4%); assay type: functional; conditions: read-out: Activity
NCI-H522 [9] = test: Induction of apoptosis in human NCI-H522 cells assessed as early apoptotic cells at 0.5 uM incubated for 48 hrs by Annexin V-FITC/PI staining based flow cytometric analysis (Rvb =7.01 %); assay type: functional
NCI-H522 [10] = test: Induction of apoptosis in human NCI-H522 cells assessed as late apoptotic cells at 0.5 uM incubated for 48 hrs by Annexin V-FITC/PI staining based flow cytometric analysis (Rvb =9.14 %); assay type: functional
NCI-H522 [11] = test: Induction of apoptosis in human NCI-H522 cells assessed as necrotic cells at 0.5 uM incubated for 48 hrs by Annexin V-FITC/PI staining based flow cytometric analysis (Rvb =0.64 %); assay type: functional
NCI-H522 [12] = test: Induction of apoptosis in human NCI-H522 cells assessed as viable cells at 5 uM incubated for 48 hrs by Annexin V-FITC/PI staining based flow cytometric analysis (reference value: 82.4%); assay type: functional; conditions: read-out: Activity
NCI-H522 [13] = test: Induction of apoptosis in human NCI-H522 cells assessed as early apoptotic cells at 5 uM incubated for 48 hrs by Annexin V-FITC/PI staining based flow cytometric analysis (Rvb =7.01 %); assay type: functional
NCI-H522 [14] = test: Induction of apoptosis in human NCI-H522 cells assessed as late apoptotic cells at 5 uM incubated for 48 hrs by Annexin V-FITC/PI staining based flow cytometric analysis (Rvb =9.14 %); assay type: functional
NCI-H522 [15] = test: Induction of apoptosis in human NCI-H522 cells assessed as necrotic cells at 5 uM incubated for 48 hrs by Annexin V-FITC/PI staining based flow cytometric analysis (Rvb =0.64 %); assay type: functional
NCI-H522 [16] = test: Induction of apoptosis in human NCI-H522 cells assessed as apoptotic rate at 0.05 to 5 uM incubated for 48 hrs by AnnexinV-FITC/PI staining based flow cytometric analysis; assay type: functional; conditions: dose 0.05-5 µM
NCI-H460 [17] = test: Induction of apoptosis in human NCI-H460 cells assessed as effect on cleavage of PARP at 1 uM measured for 48 hrs by western blot analysis; assay type: functional, cell-based
NCI-H460 [18] = test: Induction of apoptosis in human NCI-H460 cells assessed as effect on caspase 3 level at 1 uM measured for 48 hrs by western blot analysis; assay type: functional, cell-based
NCI-H460 [19] = test: Induction of apoptosis in human NCI-H460 cells assessed as effect on caspase 7 level at 1 uM measured for 48 hrs by western blot analysis; assay type: functional, cell-based
NCI-H460 [20] = test: Induction of apoptosis in human NCI-H460 cells assessed as effect on caspase 9 level at 1 uM measured for 48 hrs by western blot analysis; assay type: functional, cell-based
NCI-H522 [21] = test: Induction of mitochondrial membrane potential depolarization in human NCI-H522 cells measured after 48 hrs by JC-1 staining based flow cytometry analysis; assay type: functional, cell-based; conditions: dose 0.05-5 µM, DDE = dose-dependent effect
NCI-H460 [22] = test: Downregulation of c-Myc protein expression level in human NCI-H460 cells at 20 nM incubated for 0.5 to 6 hrs by western blot analysis; assay type: functional, cell-based; conditions: time 0.5-6 hrs
NCI-H460 [23] = test: Inhibition of polyribosome in human NCI-H460 cells assessed as increase in 80S ribosome at 200 nM incubated for 1 hr in presence of cycloheximide; assay type: functional, cell-based
[24] = Cmax in BALB/c nude mouse at 1 mg/kg, iv by LC-MS/MS analysis; assay type: ADME, organism-based; design: dose 1 mg/kg, route iv; conditions: in vivo
[25] = Cmax in BALB/c nude mouse at 10 mg/kg, po by LC-MS/MS analysis; assay type: ADME, organism-based; design: dose 10 mg/kg, route po; conditions: in vivo
[26] = AUC (0 to t) in BALB/c nude mouse at 1 mg/kg, iv by LC-MS/MS analysis; assay type: ADME, organism-based; design: dose 1 mg/kg, route iv; conditions: in vivo
[27] = AUC (0 to t) in BALB/c nude mouse at 10 mg/kg, po by LC-MS/MS analysis; assay type: ADME, organism-based; design: dose 10 mg/kg, route po; conditions: in vivo
[28] = Half life in BALB/c nude mouse at 10 mg/kg, po by LC-MS/MS analysis; assay type: ADME, organism-based; conditions: in vivo
[29] = Oral bioavailability in BALB/c nude mouse at 10 mg/kg by LC-MS/MS analysis; assay type: ADME, organism-based; conditions: in vivo
NCI-H522 [30] = test: Antitumor activity against human NCI-H522 cells xenografted in iv dosed BALB/c nude mouse assessed as inhibition of tumor growth administered every 4 days for 21 days; assay type: functional, organism-based; conditions: dose 12.5-50 mg/kg, time 4.0 day, DDE = dose-dependent effect
NCI-H522 [31] = test: Antitumor activity against human NCI-H522 cells xenografted in BALB/c nude mouse assessed as reduction of tumor weight at 50 mg/kg, iv administered every 4 days for 21 days; assay type: functional; design: scale not given: the % may be the effect or the level left; conditions: time 4 day
NCI-H522 [32] = test: Antitumor activity against human NCI-H522 cells xenografted in BALB/c nude mouse assessed as reduction of tumor growth by measuring T/C ratio at 50 mg/kg, iv administered every 4 days for 21 days; assay type: functional; conditions: time 4 day
[33] = Toxicity in BALB/c nude mouse xenografted with human NCI-H522 cells assessed as change in body weight at 12.5 to 50 mg/kg, iv administered every 4 days for 21 days; assay type: organism-based; conditions: in vivo, 96 h, dose 12.5-50 mg/kg, time 4 day

In the case of CCN(CC)C(=O)C[C@H]1C(=O)Nc2cc(NC(=O)c3cc(OC)c(OC)c(OC)c3Br)c(Oc3cc(C)cc(C)c3)cc2C(=O)N1C, the GI50 (A549) is reported as less than 5 nM, the GI50 (HCT-116) is reported as less than 5 nM and the GI50 (SF-295) is reported as less than 5 nM. It also gave a GI50 (LOX IMVI) of less than 5 nM, a GI50 (786-0) of less than 5 nM and a GI50 [1] of less than 5 nM. The IC50 [2] was 10100 nM, the Activity (NCI-H460 [3]) was “Active” and the viability at 0.05 µM (NCI-H522 [4]) was 65.8%. For the same compound, the Activity (NCI-H522 [5]) was 7.75%, the Activity (NCI-H522 [6]) was 25.2% and the Activity (NCI-H522 [7]) was 1.25%. The viability at 0.5 µM (NCI-H522 [8]) was 28.4%, the Activity (NCI-H522 [9]) was 14.5% and the Activity (NCI-H522 [10]) was 52.4%. For the same compound, the Activity (NCI-H522 [11]) was 4.6%, the viability at 5 µM (NCI-H522 [12]) was 13.5% and the Activity (NCI-H522 [13]) was 19.8%. It also gave an Activity (NCI-H522 [14]) of 59%, an Activity (NCI-H522 [15]) of 7.64% and an Activity (NCI-H522 [16]) of 35%. The Activity (NCI-H460 [17]) was “Active”, the Activity (NCI-H460 [18]) was “Active” and the Activity (NCI-H460 [19]) was “Active”. For the same compound, the Activity (NCI-H460 [20]) was “Active”, the Activity (NCI-H522 [21]) was “Dde” and the Activity (NCI-H460 [22]) was “Active”. The Activity (NCI-H460 [23]) was “Active”, the Cmax [24] was 1540 ng/mL and the Cmax [25] was 42.6 ng/mL. For the same compound, the AUC(0-t) [26] was 439 ng·h/mL, the AUC(0-t) [27] was 66.5 ng·h/mL and the half-life [28] was 1.4 h. For the same compound, the bioavailability [29] was 1.53%, the Activity (NCI-H522 [30]) was “Dde” and the Activity (NCI-H522 [31]) was 88.7%. For the same compound, the T/C (NCI-H522 [32]) was 13.6% and the Activity [33] was less than 10%.
